# Reference: PubChem BioAssay (NCI)
#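 Cultured in 96-well plates, cells were exposed to test compound for 48 hours across five concentrations. TGI: total growth inhibition.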
# Tests used:
# Experiment in all cases: NCI tumour cell line growth inhibition, 48 h
# OVCAR-5 ovarian = test system: OVCAR-5 ovarian
# M14 melanoma = test system: M14 melanoma
# U251 CNS = test system: U251 CNS
# DMS 273 small cell lung = test system: DMS 273 small cell lung
# M19-MEL melanoma = test system: M19-MEL melanoma
# KM20L2 colon = test system: KM20L2 colon
# DLD-1 colon = test system: DLD-1 colon
# HOP-18 NSCLC = test system: HOP-18 NSCLC
# LXFL 529 NSCLC = test system: LXFL 529 NSCLC
# XF 498 CNS = test system: XF 498 CNS
# SNB-78 CNS = test system: SNB-78 CNS
# DMS 114 small cell lung = test system: DMS 114 small cell lung
Structure (SMILES),TGI (OVCAR-5 ovarian) [µM],TGI (M14 melanoma) [µM],TGI (U251 CNS) [µM],other results
COc1ccc(C2=Nn3c(C)nnc3S/C2=C\c2ccc(-c3ccc([N+](=O)[O-])cc3)o2)cc1,43,48.2,45.8,–
N#C[C@H](c1nc2ccccc2[nH]1)c1nc2ccccc2nc1Cl,> 66.2,> 50.3,58.9,–
O=C(CN1CCOCC1)c1ccc2c(c1)oc(=O)n2CCN1CCCCC1,> 100,> 100,> 100,–
C[C@H](N)C(=O)Nc1ccc(-c2nc3ccccc3s2)cc1Cl,14.9,19,29.1,–
CSc1nnc2n1-c1ccccc1SCC2,–,> 100,> 100,TGI (DMS 273 small cell lung): > 100 µM; TGI (M19-MEL melanoma): > 100 µM; TGI (KM20L2 colon): > 100 µM; TGI (DLD-1 colon): > 100 µM; TGI (HOP-18 NSCLC): > 100 µM; TGI (LXFL 529 NSCLC): > 100 µM; TGI (XF 498 CNS): > 100 µM; TGI (SNB-78 CNS): > 100 µM; TGI (DMS 114 small cell lung): > 100 µM
O=C(O)Cc1ccc(-n2nnc3c(=O)[nH][nH]c(=O)c32)cc1,> 100,> 100,> 100,–
O=[N+]([O-])C(=C(\Cl)NCCO)/C(Cl)=C(/Cl)Br,13.4,3.68,6.27,–
CCOC(=O)C1=CN(Cc2ccccc2)C2ON=C(c3ccc(Cl)cc3)C2C1 (stereo not drawn),> 68.7,> 66.9,30.7,–
Cc1c(OCc2cccc3ccccc23)ccc2c(=O)cc(S)oc12,> 100,> 100,> 100,–
COc1ccc(-c2cc(-c3ccncc3)nc(N)c2-c2ccc(F)cc2)cc1,> 100,> 100,> 100,–
COc1ccc(/C=C/C(=O)N[C@@H]2C(=O)N3[C@@H]2SC(C)(C)[C@@H]3C(=O)O)cc1OC,> 100,> 100,> 100,–
C=CCOC1=C(OC(C)=O)C(C2COC(C)(C)O2)OC1=O (stereo not drawn),32.4,53.8,72.5,–
FC(F)(F)c1ccc(N=NN2CCCC2)cc1,> 100,> 100,> 100,–
O=C(O)COc1cccc2ccccc(=O)c12,> 100,> 100,> 100,–
CCOC(=O)CCNC(=O)c1cc(C)cc2c1Oc1c(cc(C)cc1C(=O)NCCC(=O)OCC)S2,> 100,> 100,> 100,–
O=CN/C=C\c1cc(O)ccc1O,> 100,> 50.3,> 81,TGI (DMS 273 small cell lung): > 41.1 µM; TGI (M19-MEL melanoma): 40.2 µM; TGI (KM20L2 colon): > 62.4 µM; TGI (DLD-1 colon): 31.6 µM; TGI (HOP-18 NSCLC): 30.7 µM; TGI (LXFL 529 NSCLC): 22.8 µM; TGI (XF 498 CNS): 28.8 µM; TGI (SNB-78 CNS): > 100 µM; TGI (DMS 114 small cell lung): 52.3 µM
CC(C)(C)OC(=O)/C=C/[C@@H](CCC(=O)/C=C/[C@H](/C=C\CCCC(=O)O)NC1(c2ccccc2)c2ccccc2-c2ccccc21)O[Si](C)(C)C(C)(C)C,43.6,29.4,30.9,–
CN(C)C=Nc1cccc2c1NSN2,> 100,> 100,> 100,–
CSc1cc(Cl)c(C)cc1S(=O)(=O)NC(=O)NNc1cnc2ccccc2n1,> 100,> 100,> 100,–
NCCCCNCCCNC(=O)c1csc(-c2nc(CCN)sc2Cl)n1,> 100,> 100,> 100,–
O=c1[nH]nc(-c2ccccc2)c2[nH]c3c(c12)CCCc1ccccc1-3,34.8,36.9,28,–
CCN(CC)CCCNc1c2cc(OC)ccc2nc2cccc([N+](=O)[O-])c12,0.432,0.24,0.432,–
